Experimental data reported in PMC6499206, “Quantification of Volatile Metabolites Derived From Garlic (Allium sativum) in Human Urine” (Frontiers in Nutrition, 2019).

Assay: Quantification of garlic-derived metabolites in human urine after ingestion of 3 g raw garlic (SIDA, SAFE, HRGC-MS / HRGC-GC-MS)
Type: in vivo
Details: for metabolite concentration in urine / metabolite concentration in urine, creatinine-normalized: 3 g raw garlic
Source text: Human urine samples were obtained from 18 volunteers (age 22–38 years, mean 27 years; 11 females, 7 males); thereby, one volunteer conducted the whole experimental series twice. At the time of examination, volunteers reported no known illness that might have potentially influenced the metabolism or the excretion of urine. The test persons were instructed to avoid foods that were rich in sulfur-containing substances at the testing day as well as 2 days preceding the testing day, namely garlic, onion, wild garlic, chives, cabbage, and leek, and were only allowed to consume the garlic sample provided in the course of the experiments. Additionally, subjects were asked to keep records of the food (including food supplements) and beverages they consumed during these 3 testing days. Generally, the overall panelists' requirements were in accordance with our previous studies ([5], [16]).
On the sampling day, the outer garlic cloves of a whole garlic bulb were peeled and cut into ~3 mm cubes by using a garlic cutter (Genius GmbH, Limburg/Lahn, Germany). Subsequently these cubes were thoroughly mixed and aliquoted into 3 g portions. Three to four test persons conducted the experiment at the same day. Each test person was asked to ingest a garlic portion of 3 g. In total, eight consecutive urine samples were provided by each test person, comprising one whole urine set. The samples were collected in sterile brown glass bottles, with sampling times as follows: one sample was provided directly prior to garlic consumption. The series of the second to eighth sample was then obtained at about 0.5, 1, 2, 4, 6, 8, and 24 h after garlic consumption, respectively. Between the first urine sample (prior to garlic consumption) and the seventh urine sample (8 h after garlic consumption) test persons only spent urine at the specific time points mentioned before. Another sample was provided at the next morning (24 h after garlic consumption). Between the samples provided 8 and 24 h after garlic consumption no urine was collected. All samples were immediately placed into a −80°C freezer and were kept frozen until further analysis.
The samples of each set were termed according to their sampling time. The following list provides the time intervals that are related to the respective sample name: • - pre: before garlic consumption • - 0.5 h post: 0.4–0.8 h after garlic consumption • - 1 h post: 0.9–1.3 h after garlic consumption • - 2 h post: 1.8 h−2.2 h after garlic consumption • - 4 h post: 3.8–4.4 h after garlic consumption • - 6 h post: 5.8–6.4 h after garlic consumption • - 8 h post: 7.8–8.4 h after garlic consumption • - 24 h post: 23.8–25.6 h after garlic consumption
A creatinine kit (Labor+Technik Eberhard Lehmann GmbH, Berlin, Germany) was used to determine the creatinine content in each urine sample. The determination principle of this kit is based on the reaction of creatinine with picric acid under basic conditions (Jaffé reaction). The formed complex was detected photometrically at a wavelength of 492 nm.
For quantification purposes, the deuterated standards ^2H3-AMS, ^2H3-AMSO, and ^2H3-AMSO2 were added to the sample and stirred for 10 min. Subsequently, DCM was added in a ratio of 1:2 (DCM/human urine; v/v) and this solution was stirred for further 30 min at room temperature. To isolate the volatile fraction from the urine samples we then applied SAFE-distillation ([17]), thereby distilling the respective samples at 50°C. After completion of the distillation process, 10 mL of DCM were applied in each case to rinse the SAFE apparatus and to ensure complete transition of the volatile compounds. This process was repeated with another 10 mL of DCM. After thawing, the obtained aqueous distillate phase was extracted three times with 25 mL DCM. The organic phases were combined, dried over anhydrous Na2SO4 and concentrated to a total volume of 100 μL by means of Vigreux distillation and subsequent micro-distillation at 50°C. […]

metabolite concentration in urine (U I, 0.5 h post (0.55 h)): 0.9 µg/kg
metabolite concentration in urine, creatinine-normalized (U I, 0.5 h post (0.55 h)): 0.1 µg/mmol creatinine
metabolite concentration in urine (U I, 1 h post (1.03 h)): 0.7 µg/kg
metabolite concentration in urine, creatinine-normalized (U I, 1 h post (1.03 h)): 0.8 µg/mmol creatinine
metabolite concentration in urine (U I, 2 h post (2.05 h)): 1.7 µg/kg
metabolite concentration in urine, creatinine-normalized (U I, 2 h post (2.05 h)): 0.8 µg/mmol creatinine
metabolite concentration in urine (U I, 4 h post (4.05 h)): 1.6 µg/kg
metabolite concentration in urine, creatinine-normalized (U I, 4 h post (4.05 h)): 0.2 µg/mmol creatinine
metabolite concentration in urine (U I, 6 h post (6.05 h)): 1.5 µg/kg
metabolite concentration in urine, creatinine-normalized (U I, 6 h post (6.05 h)): 0.2 µg/mmol creatinine
metabolite concentration in urine (U I, 8 h post (8.05 h)): 0.7 µg/kg
metabolite concentration in urine, creatinine-normalized (U I, 8 h post (8.05 h)): 0.1 µg/mmol creatinine
metabolite concentration in urine (U I, 24 h post (25.55 h)): traces^1
metabolite concentration in urine, creatinine-normalized (U I, 24 h post (25.55 h)): traces^1
metabolite concentration in urine (U I, pre (-0.03 h)): < LOD^1
metabolite concentration in urine, creatinine-normalized (U I, pre (-0.03 h)): < LOD^1
metabolite concentration in urine (U II, 0.5 h post (0.50 h)): 0.5 µg/kg
metabolite concentration in urine, creatinine-normalized (U II, 0.5 h post (0.50 h)): 0.1 µg/mmol creatinine
metabolite concentration in urine (U II, 1 h post (1.00 h)): 0.9 µg/kg
metabolite concentration in urine, creatinine-normalized (U II, 1 h post (1.00 h)): 0.3 µg/mmol creatinine
metabolite concentration in urine (U II, 2 h post (2.00 h)): 0.5 µg/kg
metabolite concentration in urine, creatinine-normalized (U II, 2 h post (2.00 h)): 0.4 µg/mmol creatinine
metabolite concentration in urine (U II, 4 h post (4.00 h)): 0.7 µg/kg
metabolite concentration in urine, creatinine-normalized (U II, 4 h post (4.00 h)): 0.1 µg/mmol creatinine
metabolite concentration in urine (U II, 6 h post (6.00 h)): 0.4 µg/kg
metabolite concentration in urine, creatinine-normalized (U II, 6 h post (6.00 h)): 0.04 µg/mmol creatinine
metabolite concentration in urine (U II, 8 h post (8.00 h)): 0.2 µg/kg
metabolite concentration in urine, creatinine-normalized (U II, 8 h post (8.00 h)): 0.02 µg/mmol creatinine
metabolite concentration in urine (U II, 24 h post (24.12 h)): traces^1
metabolite concentration in urine, creatinine-normalized (U II, 24 h post (24.12 h)): traces^1
metabolite concentration in urine (U II, pre (-0.13 h)): < LOD^1
metabolite concentration in urine, creatinine-normalized (U II, pre (-0.13 h)): < LOD^1
metabolite concentration in urine (U III, 0.5 h post (0.53 h)): 0.6 µg/kg
metabolite concentration in urine, creatinine-normalized (U III, 0.5 h post (0.53 h)): 0.3 µg/mmol creatinine
metabolite concentration in urine (U III, 1 h post (1.07 h)): 0.6 µg/kg
metabolite concentration in urine, creatinine-normalized (U III, 1 h post (1.07 h)): 0.8 µg/mmol creatinine
metabolite concentration in urine (U III, 2 h post (2.18 h)): 1.2 µg/kg
metabolite concentration in urine, creatinine-normalized (U III, 2 h post (2.18 h)): 0.7 µg/mmol creatinine
metabolite concentration in urine (U III, 4 h post (4.35 h)): 0.8 µg/kg
metabolite concentration in urine, creatinine-normalized (U III, 4 h post (4.35 h)): 0.3 µg/mmol creatinine
metabolite concentration in urine (U III, 6 h post (6.35 h)): 0.6 µg/kg
metabolite concentration in urine, creatinine-normalized (U III, 6 h post (6.35 h)): 0.1 µg/mmol creatinine
metabolite concentration in urine (U III, 8 h post (8.43 h)): 0.4 µg/kg
metabolite concentration in urine, creatinine-normalized (U III, 8 h post (8.43 h)): 0.1 µg/mmol creatinine
metabolite concentration in urine (U III, 24 h post (23.90 h)): traces^1
metabolite concentration in urine, creatinine-normalized (U III, 24 h post (23.90 h)): traces^1
metabolite concentration in urine (U III, pre (-0.03 h)): traces^1
metabolite concentration in urine, creatinine-normalized (U III, pre (-0.03 h)): traces^1
metabolite concentration in urine (U IV, 0.5 h post (0.55 h)): 0.7 µg/kg
metabolite concentration in urine, creatinine-normalized (U IV, 0.5 h post (0.55 h)): 0.1 µg/mmol creatinine
metabolite concentration in urine (U IV, 1 h post (1.05 h)): 0.7 µg/kg
metabolite concentration in urine, creatinine-normalized (U IV, 1 h post (1.05 h)): 0.5 µg/mmol creatinine
metabolite concentration in urine (U IV, 2 h post (2.12 h)): 0.7 µg/kg
metabolite concentration in urine, creatinine-normalized (U IV, 2 h post (2.12 h)): 0.4 µg/mmol creatinine
metabolite concentration in urine (U IV, 4 h post (4.05 h)): 0.8 µg/kg
metabolite concentration in urine, creatinine-normalized (U IV, 4 h post (4.05 h)): 0.2 µg/mmol creatinine
metabolite concentration in urine (U IV, 6 h post (6.08 h)): 0.6 µg/kg
SMILES: C=CCSC [AMS, allyl methyl sulfide]
concentration in urine compared with human milk (3 g raw garlic in both studies, milk data ref 20): comparable excretion levels in both media
